# Measurements published in ChEMBL document CHEMBL4825760, “Interleukin-17A Peptide Aptamers with an Unexpected Binding Moiety Selected by cDNA Display under Heterogenous Conditions” (ACS Med Chem Lett, 2021).
# Activity calls are given as the source filed them. No cut-off for these calls is given here. *1 amine or outer side, *2 acyl side, *3 side chain or, on linkers, in order; H or OH if unused. Where a SMILES comes first, the peptide text is derived from it. Bridges are numbered along the chain shown (N, C = ends). oXylylene = c1ccc(C[*:2])c(C[*:1])c1
# Assays:
# [1] = target: T1, Interleukin-17A (Homo sapiens, UniProt Q16552); assay: Binding affinity to human IL-17A assessed as dissociation constant in PBS-T measured after 60 mins by Biolayer interferometry
# T1 sequence (Q16552 whole entry): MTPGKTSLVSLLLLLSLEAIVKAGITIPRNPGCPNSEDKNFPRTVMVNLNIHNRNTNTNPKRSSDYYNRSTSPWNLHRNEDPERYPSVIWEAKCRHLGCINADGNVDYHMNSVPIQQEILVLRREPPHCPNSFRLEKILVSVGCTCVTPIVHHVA
# [2] = target: T2, Interleukin-17F (Homo sapiens) (UniProt Q96PD4); assay: Binding affinity to human IL-17F
# T2 sequence (whole entry): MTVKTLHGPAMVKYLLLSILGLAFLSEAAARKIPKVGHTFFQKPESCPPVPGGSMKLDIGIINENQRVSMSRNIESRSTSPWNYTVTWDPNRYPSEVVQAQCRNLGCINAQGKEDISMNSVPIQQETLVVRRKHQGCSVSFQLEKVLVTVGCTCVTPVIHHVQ
# [3] = target: T3, Interleukin-17A (Mus musculus) (UniProt Q62386); assay: Binding affinity to mouse IL-17A
# T3 sequence (whole entry): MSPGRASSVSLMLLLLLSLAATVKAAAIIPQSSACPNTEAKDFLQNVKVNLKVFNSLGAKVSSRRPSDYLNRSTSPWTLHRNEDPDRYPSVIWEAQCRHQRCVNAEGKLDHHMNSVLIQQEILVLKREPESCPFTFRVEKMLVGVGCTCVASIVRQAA
# [4] = Stability of the compound in 50% human serum assessed as compound decomposition incubated for 24 hrs by SDS-PAGE analysis
# [5] = target: T1, Interleukin-17A; assay: Binding affinity to biotinylated human IL-17A by SPR analysis
Kd [1],metabolised at 24 h [4] [%],Compound,further results
Not Active,,CC(C)C[C@H](NC(=O)[C@H](C)NC(=O)[C@@H](NC(=O)[C@H](CC(C)C)NC(=O)[C@H](CC(C)C)NC(=O)[C@H](CCC(=O)O)NC(=O)[C@@H](N)CS)[C@@H](C)O)C(=O)NCC(=O)N[C@@H](Cc1ccc(O)cc1)C(=O)N1CCC[C@H]1C(=O)N[C@H](C(=O)N[C@@H](Cc1ccc(O)cc1)C(=O)N[C@@H](CS)C(=O)O)C(C)C (H-CELLTALGYPVYC-OH),
Not Active,,CC(C)C[C@H](NC(=O)[C@H](CCC(=O)O)NC(=O)[C@@H](N)CS)C(=O)N[C@@H](CC(C)C)C(=O)N[C@H](C(=O)N[C@@H](Cc1ccccc1)C(=O)N[C@@H](C)C(=O)NCC(=O)N[C@@H](Cc1ccc(O)cc1)C(=O)N1CCC[C@H]1C(=O)N[C@H](C(=O)N[C@@H](Cc1ccc(O)cc1)C(=O)N[C@@H](CS)C(=O)O)C(C)C)[C@@H](C)O (H-CELLTFAGYPVYC-OH),
,9.5,CC(C)C[C@H](NC(=O)[C@H](Cc1ccccc1)NC(=O)[C@@H](NC(=O)[C@H](CC(C)C)NC(=O)[C@H](CC(C)C)NC(=O)[C@H](CCC(=O)O)NC(=O)[C@@H](N)CS)[C@@H](C)O)C(=O)NCC(=O)N[C@@H](Cc1ccc(O)cc1)C(=O)N1CCC[C@H]1C(=O)N[C@H](C(=O)N[C@@H](Cc1ccc(O)cc1)C(=O)N[C@@H](CS)C(=O)O)C(C)C (H-CELLTFLGYPVYC-OH),Activity [2]: inactive; Activity [3]: Active
,30.5,CC(C)C[C@@H]1NC(=O)[C@H](Cc2ccccc2)NC(=O)[C@H]([C@@H](C)O)NC(=O)[C@H](CC(C)C)NC(=O)[C@H](CC(C)C)NC(=O)[C@H](CCC(=O)O)NC(=O)[C@@H](N)CSCc2ccccc2CSC[C@@H](C(=O)O)NC(=O)[C@H](Cc2ccc(O)cc2)NC(=O)[C@H](C(C)C)NC(=O)[C@@H]2CCCN2C(=O)[C@H](Cc2ccc(O)cc2)NC(=O)CNC1=O (H-CELLTFLGYPVYC-OH; linker 1-13 via oXylylene),
,,CC(C)C[C@@H]1NC(=O)[C@H](Cc2ccccc2)NC(=O)[C@H]([C@@H](C)O)NC(=O)[C@H](CC(C)C)NC(=O)[C@H](CC(C)C)NC(=O)[C@H](CCC(=O)O)NC(=O)[C@@H](NC(=O)[C@H](CO)NC(=O)CN)CSSC[C@@H](C(=O)NCC(=O)NCC(=O)NCC(=O)N[C@@H](CO)C(=O)N[C@@H](Cc2cnc[nH]2)C(=O)N[C@@H](Cc2cnc[nH]2)C(=O)N[C@@H](Cc2cnc[nH]2)C(=O)N[C@@H](Cc2cnc[nH]2)C(=O)N[C@@H](Cc2cnc[nH]2)C(=O)N[C@@H](Cc2cnc[nH]2)C(=O)O)NC(=O)[C@H](Cc2ccc(O)cc2)NC(=O)[C@H](C(C)C)NC(=O)[C@@H]2CCCN2C(=O)[C@H](Cc2ccc(O)cc2)NC(=O)CNC1=O (H-GSCELLTFLGYPVYCGGGSHHHHHH-OH; disulfide 3-15),Kd [5]: Not Active
